Laboratory results: patent US20060148908A1, “Supressant of toxicity induced by cancer chemotherapeutic agent and composition of cancer chemotherapeutic agent containing the same” (priority 2003, published 2006)
“Also recorded” adds a separate entry of the source.

How the values were obtained:
S100A9 = experiment: DDRT-PCR and semiquantitative RT-PCR of liver, S100A9 mRNA expression; format: in vivo, mice
AP-1 = system: AP-1
Method: (§1) The density of band was measured by RFLPscan software.
(§2) The kidney and spleen were separated and weighed, respectively.
(§3) EMSA (electrophoretic mobility shift assay) was performed to evaluate the xanthorrhizol's effects on NF-κB and AP-1. […] After that, powdered liver tissues were homogenized in 500 μl of cool hypotonic buffer [10 mM HEPES (pH 7.8), 10 mM KCl, 1.5 mM MgCl2, 0.5 mM DIT, 0.2 mM PMSF]. To the homogenates was added 125 μl of 10% NP-40 solution, and the mixture was then centrifuged at 12,000×g for 1 min. Pellets were washed once with 100 μl of the above buffer and 12.5 μl of 10% NP-40, centrifuged, resuspended in 50 μl of 20 mM cool HEPES buffer (pH 7.8) containing 420 mM NaCl, 1.5 mM MgCl2, 0.2 mM EDTA, 0.5 mM DTT, 0.2 mM PMSF, and 20% glycerol, and centrifuged at 12000×g for 5 min at 4° C. The supernatant containing nuclear proteins was collected and assayed protein concentration and stored at −70° C. […] The binding reaction was carried out in 25 μl of the mixture containing 5 μl of incubation buffer [10 mM Tris-HCl (pH 7.5), 100 mM NaCl, 1 mM DTT, 1 mM EDTA, 4% (v/v) glycerol, and 0.1 mg/ml sonicated salmon sperm DNA], 10 μg of nuclear extracts, and 100,000 cpm of the labeled probe. After 50 min of incubation at room temperature, the samples and comparative samples mixed with 3 μl of loading buffer (250 mM Tris-HCl (pH7.5), 0.2% bromophenol blue, 40% glycerol) were electrophoresed through a 6% non-denaturing polyacrylamide gel at 150 V for 2 hrs. Finally, the gel was dried and exposed to X-ray film.

NF-κB = settings: for binding activity of NF-κB induced by cisplatin: liver, oral pretreatment before cisplatin
Method: as §1, §2, §3

COX-2 = experiment: Semiquantitative RT-PCR of liver, COX-2 mRNA expression; format: in vivo, mice; settings: for cisplatin-induced COX-2 mRNA expression: pretreatment 200 mg/kg before cisplatin
Method: (§4) The mRNA expression levels of NF-κB-dependent genes, COX-2 and iNOS, were evaluated by semiquantitative RT-PCR using specific primer sets. β-actin and GAPDH were used as control.
as §2

ICR mice [1] = experiment: Serum biochemical parameters (GPT, GOT, BUN, creatinine) in cisplatin-treated mice; format: in vivo
Method: as §2
Blood samples obtained from heart were kept at room temperature for 2 h, centrifuged at 3000 rpm for 10 minutes to obtain sera, and stored at low temperature for analyzing proteins. GPT (Glutamate-Pyruvate Transaminase), GOT (Glutamate-Oxaloacetate Transaminase), blood urea nitrogen (BUN), and creatinine from the serum were measured.
The principle is following: α-ketoglutaric acid+alanine→glutamate+pyruvate. Pyruvate formed by GPT enzyme in said reaction is reacted with 2,4-dinitrophenylhydrazine and the intensity of color formed by the resulting reaction is related to enzymatic activity. The absorbance was determined at 505 nm. The reagents for determining GPT and GOT were purchased from Sigma chemical Co. (St. Louis, U.S.A.). Because hemolyzed serum contains a high level of GOT and GPT compared to normal serum, only unhemolyzed serum should be used as much as possible. The separated serum samples were stored at 4° C. and used within 5 days because the activity of GPT and GOT might decrease after 5 days at low temperature.
1 ml alanine-α-KG substrate was added to test tube and was pre-warmed at 37° C. for 2-3 minutes. 0.2 ml serum samples was added to each tube and incubated at 37° C. for 30 minutes in water bath. After that, 1 ml 2,4-dinitrophenylhydrazine was added and incubated at room temperature for 20 minutes. 10 ml 0.4N NaOH solution was added to each tube and was mixed well. After that, the GPT absorbance of each tube was read comparing with distilled water. In case of GOT determination, 1 ml aspartate-α-KG substrate was pre-warmed at 37° C. for 2-3 minutes, and 0.2 ml serum samples were added to each tube and incubated at 37° C. for 60 minutes, and the absorbance was read.
Through a kit for assaying blood urea nitrogen, Ammonia (NH3) formed by hydrolysis of urea was measured by the absorbance at 570 nm.
0.5 ml urease solution was added to test tube and mixed with 10 μl serum sample, and incubated in water bath at 37° C. for 5-10 minutes. 1 ml phenol nitroprusside solution and 1 ml alkaline hypochlorite solution were added to the tube and mixed gentlely, and 5 ml distilled water was added. After that, the absorbance of the reaction was measured comparing with distilled water as a control. The reagents for determining urea nitrogen were purchased from Sigma chemical Co. (St. Louis, U.S.A.) and standard calibration curve was used.
Standard calibration curve was used.
3 ml alkaline picrate solution and 0.3 ml serum sample were mixed well at 37° C. for 20 minutes and the absorbance (A1) was measured. Distilled water was used for a negative control. 0.1 ml acid solution (mixture of sulfuric acid and acetic acid) was added to each tube and incubated in water bath at 37° C. for 5 minutes. After that, the absorbance (A2) was read with distilled water as a negative control. Absorbance of the sample for determining the content of creatinine is absorbance (A1) minus absorbance (A2) according to standard calibration curve. The reagents for determining creatinine were purchased from Sigma chemical Co. (St. Louis, U.S.A.)

ClpX = experiment: DDRT-PCR and semiquantitative RT-PCR of liver, ClpX mRNA expression; format: in vivo, mice
Kin = settings: mouse, in vivo
Method: After that, powdered liver tissues were homogenized using TRIzol™ reagent (Life technologies, Austria). The homogenized samples were incubated for 5 min at room temperature to permit the complete dissociation of nucleoprotein complexes. After the addition of 0.2 volume of chloroform, samples were shaken vigorously for 15 seconds, incubated for 2-3 min, and centrifuged at 12000×g for 15 min at 4° C. Total RNA in the upper aqueous phase was precipitated by mixing with an equal volume of isopropanol. The mixtures were incubated for 10 min at 4° C. and centrifuged at 12000×g for 10 min at 4° C. Total RNA pellet was washed with 75% ethanol, dried, and dissolved in RNase free water. To prevent the contamination with chromosomal DNA, total RNA samples were incubated with 10 units of DNase I (GenHunter Corp., Nashville, USA) at 37° C. for 30 min, and then DNA-free RNA was isolated using TRIzol reagent. The concentration and purity of total RNA and DNase-I-treated total RNA were calculated with absorbance at 260 and 280 nm.
DDRT-PCR (differential display reverse transciption-polymerase chain reaction) was performed using the RNAimage kit (GenHunter Corp., Nashville, USA). […]

ICR mice [2] = experiment: Kidney and spleen weight relative to body weight in cisplatin-treated mice; format: in vivo; settings: for specific gravity of kidney: oral pretreatment for 4 days before cisplatin injection, versus cisplatin only
Method: Cisplatin was intraperitoneally injected in mice. After some time passed, body weights of the mice were checked and induction of toxicity was confirmed. Blood was gotten from the heart of etherized mouse, and biochemical markers related to the induction of hepatotoxicity and nephrotoxicity were evaluated, and the kidney and spleen were separated and weighed for comparison.
Changes of specific gravity of kidney were also measured to evaluate suppressing effects of xanthorrhizol on nephrotoxicity induced by cisplatin.
as §2

iNOS = experiment: Semiquantitative RT-PCR of liver, iNOS mRNA expression; format: in vivo, mice; settings: for induction of iNOS mRNA expression by cisplatin: pretreatment before cisplatin
Method: as §4, §2

Streptococcus mutans = settings: Hwang 2000; cited from earlier work
rat uterine = settings: Ponce-Monter et al. 1999; cited from earlier work
[3] = administration of cisplatin alone
[4] = cisplatin 45 mg/kg i.p. alone, 16 h after injection
[5] = cisplatin 45 mg/kg i.p. alone (corn oil orally 4 days), 16 h after injection
[6] = liver, oral pretreatment before cisplatin
[7] = 200 mg/kg per day orally 4 days, then cisplatin 45 mg/kg i.p., 16 h
[8] = 100 mg/kg per day orally 4 days, then cisplatin 45 mg/kg i.p., 16 h
[9] = 200 mg/kg per day orally 4 days, then cisplatin 45 mg/kg i.p., 16 h, listed as xanthorrhizol

Method for CP: Each example group consisted of 10 ICR mice (5 weeks, male). […] Only the corn oil was dosed orally as a negative control. […] Mice were weighed 16 h after the injection, killed under ether anesthesia and blood and liver samples were collected. The kidney and spleen were separated and weighed, respectively.
After that, powdered liver tissues were homogenized using TRIzol™ reagent (Life technologies, Austria). The homogenized samples were incubated for 5 min at room temperature to permit the complete dissociation of nucleoprotein complexes. After the addition of 0.2 volume of chloroform, samples were shaken vigorously for 15 seconds, incubated for 2-3 min, and centrifuged at 12000×g for 15 min at 4° C. Total RNA in the upper aqueous phase was precipitated by mixing with an equal volume of isopropanol. The mixtures were incubated for 10 min at 4° C. and centrifuged at 12000×g for 10 min at 4° C. […] The concentration and purity of total RNA and DNase-I-treated total RNA were calculated with absorbance at 260 and 280 nm. […]
Semiquantitative RT-PCR was performed to confirm the results from DDRT-PCR. To set the most suitable PCR amplification conditions, primers for interesting gene were determined by an on-line primer design program (Rozen and Skaletsky, 2000). […]

For `N.N.[Cl][Pt][Cl]` [Cisplatin, cis-diamminedichloroplatinum [II], reference compound], the “S100A9 mRNA expression” value (S100A9; cisplatin alone) was “upregulated”, the “DNA-binding activity of AP-1” value (AP-1; mouse, in vivo) was “decreased” and the “DNA-binding activity of NF-κB” value (NF-κB; mouse, in vivo) was “increased”. The “COX-2 mRNA expression” value (COX-2; [3]) was “highly induced”, the “BUN (blood urea nitrogen)” value (ICR mice [1]; [4]) was 144.4 ± 20.6 mg/dL and the Creatinine (ICR mice [1]; [4]) was 2.8 ± 0.7 mg/dL. For the same compound, the GOT (ICR mice [1]; [4]) was 517.1 ± 99.1 U/liter, the GPT (ICR mice [1]; [4]) was 185.8 ± 86.3 U/liter and the “CP mRNA expression” value (CP; mouse, in vivo) was “downregulated”. The “ClpX mRNA expression” value (ClpX; cisplatin alone) was “downregulated”, the “Kin mRNA expression” value (Kin) was “upregulated” and the “K.W/B.W * 1000% (kidney weight/body weight)” value (ICR mice [2]; [5]) was 19.2 ± 1.6. For the same compound, the “S.W/B.W * 1000% (spleen weight/body weight)” value (ICR mice [2]; [5]) was 2.1 ± 0.4 and the “iNOS mRNA expression” value (iNOS; [3]) was “highly induced”.

For `COc1cc(/C=C/C(=O)CC(=O)/C=C/c2ccc(O)c(OC)c2)ccc1O` [Curcumin, curcumin, reference compound], the “suppressed binding activity of AP-1 (by cisplatin)” value (AP-1; [6]) was “did not change”, the “binding activity of NF-κB induced by cisplatin” value (NF-κB) was “suppressed” and the “cisplatin-induced COX-2 mRNA expression” value (COX-2) was “returned the cisplatin-induced COX-2 mRNA expression to initial level”. The “BUN (blood urea nitrogen)” value (ICR mice [1]; [7]) was 138.6 ± 46.2 mg/dL, the Creatinine (ICR mice [1]; [7]) was 2.2 ± 1.4 mg/dL and the GOT (ICR mice [1]; [7]) was 381.6 ± 144.7 U/liter. For the same compound, the GPT (ICR mice [1]; [7]) was 158.4 ± 84.3 U/liter, the “CP mRNA expression level changed by cisplatin” value (CP; liver, pretreatment before cisplatin) was “did not show that effect” and the “K.W/B.W * 1000% (kidney weight/body weight)” value (ICR mice [2]; [7]) was 17.2 ± 1.7. The “S.W/B.W * 1000% (spleen weight/body weight)” value (ICR mice [2]; [7]) was 2.0 ± 0.1, the “specific gravity of kidney” value (ICR mice [2]) was “decreased specific gravity of kidney at the level similar to that of the control group” and the “induction of iNOS mRNA expression by cisplatin” value (iNOS) was “not suppressed”.

For `CC(C)=CCC[C@@H](C)c1ccc(C)c(O)c1` [Xanthorrhizol, xanthorrhizol], the “antibacterial effect against oral bacteria such as Streptococcus mutans” value (Streptococcus mutans) is listed as “antibacterial effect”, the “S100A9 mRNA expression level changed by cisplatin” value (S100A9; pretreatment before cisplatin) is listed as “reversed” and the “recovery of the binding activity of AP-1 suppressed by cisplatin” value (AP-1; [6]) is listed as “about 50%”. For the same compound, the “binding activity of NF-κB induced by cisplatin” value (NF-κB) was “suppressed”, the “cisplatin-induced COX-2 mRNA expression” value (COX-2) was “returned the cisplatin-induced COX-2 mRNA expression to initial level” and the “tonic contraction of rat uterine” value (rat uterine) was “dose-dependently limits tonic contraction”. The “BUN (blood urea nitrogen)” value (ICR mice [1]; [8]) was 145.2 ± 23.5 mg/dL, the Creatinine (ICR mice [1]; [8]) was 2.0 ± 1.1 mg/dL and the GOT (ICR mice [1]; [8]) was 296.5 ± 74.5 U/liter. The GPT (ICR mice [1]; [8]) was 134.2 ± 58.5 U/liter, the “BUN (blood urea nitrogen)” value (ICR mice [1]; [7]) was 50.9 ± 16.7 mg/dL and the Creatinine (ICR mice [1]; [7]) was 0.8 ± 0.5 mg/dL. For the same compound, the GOT (ICR mice [1]; [7]) was 201.4 ± 50.3 U/liter, the GPT (ICR mice [1]; [7]) was 106.0 ± 28.3 U/liter and the “BUN (blood urea nitrogen)” value (ICR mice [1]; [9]) was “significantly decreased”. For the same compound, the Creatinine (ICR mice [1]; [9]) was “significantly decreased”, the GPT (ICR mice [1]; [9]) was “significantly reduced” and the “ClpX mRNA expression level changed by cisplatin” value (ClpX; pretreatment before cisplatin) was “maintained the ClpX mRNA expression in the same level as without administrating with cisplatin; also recorded: reversed”. For the same compound, the “K.W/B.W * 1000% (kidney weight/body weight)” value (ICR mice [2]; [8]) was 17.5 ± 2.9, the “S.W/B.W * 1000% (spleen weight/body weight)” value (ICR mice [2]; [8]) was 2.1 ± 0.4 and the “K.W/B.W * 1000% (kidney weight/body weight)” value (ICR mice [2]; [7]) was 14.6 ± 0.9. The “S.W/B.W * 1000% (spleen weight/body weight)” value (ICR mice [2]; [7]) was 2.0 ± 0.3, the “specific gravity of kidney” value (ICR mice [2]) was “decreased specific gravity of kidney at the level similar to that of the control group” and the “induction of iNOS mRNA expression by cisplatin” value (iNOS) was “strongly suppressed”.
